# Target: T1, STAT6 (Homo sapiens, UniProt P42226)
# T1 construct: These cells express endogenous STAT6; host or cells: HeLa LgBiT clone 4.14
# T1 sequence (P42226 1-847): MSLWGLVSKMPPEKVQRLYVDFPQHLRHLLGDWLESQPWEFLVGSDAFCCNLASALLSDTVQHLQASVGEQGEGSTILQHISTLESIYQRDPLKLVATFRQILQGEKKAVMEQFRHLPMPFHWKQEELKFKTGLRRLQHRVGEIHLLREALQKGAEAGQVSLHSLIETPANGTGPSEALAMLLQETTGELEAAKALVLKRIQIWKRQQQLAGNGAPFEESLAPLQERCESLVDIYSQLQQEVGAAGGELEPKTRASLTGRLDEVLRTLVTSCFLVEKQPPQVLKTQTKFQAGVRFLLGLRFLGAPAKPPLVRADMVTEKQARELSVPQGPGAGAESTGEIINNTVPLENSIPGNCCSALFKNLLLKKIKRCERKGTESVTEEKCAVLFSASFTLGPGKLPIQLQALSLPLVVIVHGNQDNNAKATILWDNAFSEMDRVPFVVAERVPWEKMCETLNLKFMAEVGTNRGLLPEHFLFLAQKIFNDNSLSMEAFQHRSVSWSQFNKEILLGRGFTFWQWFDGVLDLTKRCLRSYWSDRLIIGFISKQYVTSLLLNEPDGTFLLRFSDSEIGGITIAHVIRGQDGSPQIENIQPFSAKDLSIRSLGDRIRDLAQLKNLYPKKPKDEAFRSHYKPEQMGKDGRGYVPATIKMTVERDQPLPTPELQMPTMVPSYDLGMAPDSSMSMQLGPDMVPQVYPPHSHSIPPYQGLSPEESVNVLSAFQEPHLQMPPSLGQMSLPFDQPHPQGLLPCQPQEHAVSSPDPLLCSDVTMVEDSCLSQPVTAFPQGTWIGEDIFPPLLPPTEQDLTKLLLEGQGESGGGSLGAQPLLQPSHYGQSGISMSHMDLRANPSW
# Test: Stat6 Degrader Assay (HiBiT based, HeLa LgBiT clone 4.14)
# Type: cell-based
# Details: HeLa LgBiT clone 4.14 HiBiT-STAT6, 4-24 h incubation; read-out: STAT6 degradation Emax
# Method: This was a HiBit based assay. A HeLa cell line stably transfected with a small protein, LgBit (Large Bit) was obtained from Promega. These cells express endogenous STAT6. A small 11 amino acid gene sequence (HiBiT) was inserted in the STAT6 gene using CRISPR technology. Once STAT6 protein is expressed in the cells, the HiBiT sequence will bind the LgBit in the cells resulting in a functional NanoBiT protein, giving a luminescent tag to STAT6, see FIG. 2.
# Single cell clones were prepared and the clone 4.14 was selected for the assay based on that clone showing high luminescence, high STAT6 phosphorylation upon stimulation with IL-4, and inhibition of luminescence when cells were treated with STAT6 siRNA.
# HeLa LgBiT clone 4.14 cells were suspended in DMEM with 10% FCS, 1% Pen/Strep, Na-pyrovate and Hygromycin B, at a concentration of 1.25*105 cells pr mL. 5000 cells were added pr well of a 384 well plate and 20 nL of compound was added by Echo® liquid handler. NN6394A (terfenadine, a toxic compound) was added to control wells at 50 μM concentration to establish the assay window. In these wells the cells are dead which equals 100% degradation of STAT6.
# After 4-24 h of incubation at 37° C. under 5% CO2/95% air, 5 μL substrate (Nano-GLO®) was added to the wells and the plates were centrifuged and incubated for 0.5 h.
# The luminescence in the wells as a measure of non-degraded STAT6 was measured in a plate reader (BMG Pherastar FSX).
# The dose-response curves for Examples 3u208, 3u246, 3u118, 3u119, 3u120, and 3u74 are shown in FIG. 1 (where percent degradation is plotted vs. test compound concentration in M on a log-scale).
row,SMILES,Emax [%]
1,"C[C@H](c1cc2c(-n3ccc4[nH]ncc4c3=O)ccnc2n1C)N1CCC(c2ccc(C(=O)N3CCC(CN4CCN(Cc5ccc6c(c5)oc(=O)n6C5CCC(=O)NC5=O)CC4)CC3)cc2)CC1 (stereo partly drawn) [Example 3u265, 3-(6-((4-((1-(4-(1-((R)-1-(1-methyl-4-(4-oxo-1,4-dihydro-5H-pyrazolo[4,3-c]pyridin-5-yl)-1H-pyrrolo[2,3-b]pyridin-2-yl)ethyl)piperidin-4-yl)benzoyl)piperidin-4-yl)methyl)piperazin-1-yl)methyl)-2-oxobenzo[d]oxazol-3 (2H)-yl)piperidine-2,6-dione]",< 20
2,"CNc1ccn(-c2ccnc3c2cc(CN2CCC(c4c(F)cc(C(=O)N5CCC(CN6CCN(c7ccc8c(c7)C7(CC7)C(=O)N8[C@H]7CCC(=O)NC7=O)CC6)CC5)cc4F)CC2)n3C)c(=O)c1 (single isomer, unassigned) [Example 3u151]",30 to 40
3,"CNc1nc(=O)n(-c2ccnc3c2cc(CN2CCC(c4c(F)cc(C(=O)N5CCC(CN6CCN(c7cc8c(cc7F)n(C7CCC(=O)NC7=O)c(=O)n8C)CC6)CC5)cc4F)CC2)n3C)cc1F (stereo not drawn) [Example 3u261, 3-(5-(4-((1-(3,5-difluoro-4-(1-((4-(5-fluoro-4-(methylamino)-2-oxopyrimidin-1 (2H)-yl)-1-methyl-1H-pyrrolo[2,3-b]pyridin-2-yl)methyl)piperidin-4-yl)benzoyl)piperidin-4-yl)methyl)piperazin-1-yl)-6-fluoro-3-methyl-2-oxo-2,3-dihydro-1H-benzo[d]imidazol-1-yl)piperidine-2,6-dione]",< 20

# Same assay, conditions: HeLa LgBiT clone 4.14 HiBiT-STAT6, 4-24 h incubation; values given for compounds with >80% Emax; geometric mean; read-out: STAT6 degradation DC50
row,SMILES,DC50 [nM]
1,"CNc1ccn(-c2ccnc3c2cc([C@H](C)N2CC=C(c4c(C)cc(C(=O)N5CCC(CN6CCN(Cc7ccc8c(c7)C7(CC7)C(=O)N8C7CCC(=O)NC7=O)C[C@@H]6C)CC5)cc4F)CC2)n3C)c(=O)c1F (stereo partly drawn) [Example 3u114, 3-(5′-(((S)-4-((1-(3-fluoro-4-(1-((S)-1-(4-(3-fluoro-4-(methylamino)-2-oxopyridin-1 (2H)-yl)-1-methyl-1H-pyrrolo[2,3-b]pyridin-2-yl)ethyl)-1,2,3,6-tetrahydropyridin-4-yl)-5-methyl-benzoyl)piperidin-4-yl)methyl)-3-methylpiperazin-1-yl)methyl)-2′-oxospiro[cyclopropane-1,3′-indolin]-1′-yl)piperidine-2,6-dione]",9.9
2,"Cc1cc(C(=O)N2CCC(CN3CCN(Cc4cc5c(cc4F)n([C@H]4CCC(=O)NC4=O)c(=O)n5C4CC4)CC3)CC2)cc(F)c1C1=CCN([C@@H](C)c2cc3c(-n4ccc5c(c4=O)CCN5)ccnc3n2C)CC1 (single isomer, unassigned) [Example 3u147]",1.6
3,"Cc1cc(C(=O)N2CCC(CN3CCN(Cc4ccc5c(c4)n(C4CC4)c(=O)n5[C@H]4CCC(=O)NC4=O)CC3)CC2)cc(F)c1C1=CCN([C@@H](C)c2cc3c(-n4ccc5c(c4=O)CCN5)ccnc3n2C)CC1 (single isomer, unassigned) [Example 3u142]",2.4
4,"CNc1ccn(-c2ccnc3c2cc(CN2CCC(c4c(F)cc(C(=O)N5CCC(CN6CCN(C(=O)c7ccc8c(c7)n(C)c(=O)n8C7CCC(=O)NC7=O)CC6)CC5)cc4F)CC2)n3C)c(=O)c1 (stereo not drawn) [Example 3u264, 3-(5-(4-((1-(3,5-difluoro-4-(1-((1-methyl-4-(4-(methylamino)-2-oxopyridin-1 (2H)-yl)-1H-pyrrolo[2,3-b]pyridin-2-yl)methyl)piperidin-4-yl)benzoyl)piperidin-4-yl)methyl)piperazine-1-carbonyl)-3-methyl-2-oxo-2,3-dihydro-1H-benzo[d]imidazol-1-yl)piperidine-2,6-dione]",5.9
5,"CNc1ccn(-c2ccnc3c2cc([C@H](C)N2CC=C(c4c(C)cc(C(=O)N(C)C5CCC(C6CCN(Cc7ccc8c(c7)n(C)c(=O)n8C7CCC(=O)NC7=O)CC6)CC5)cc4F)CC2)n3C)c(=O)c1 (stereo partly drawn) [Example 3u252, N-(4-(1-((1-(2,6-dioxopiperidin-3-yl)-3-methyl-2-oxo-2,3-dihydro-1H-benzo[d]-imidazol-5-yl)methyl)piperidin-4-yl)cyclohexyl)-3-fluoro-N,5-dimethyl-4-(1-((S)-1-(1-methyl-4-(4-(methylamino)-2-oxopyridin-1 (2H)-yl)-1H-pyrrolo[2,3-b]pyridin-2-yl)ethyl)-1,2,3,6-tetrahydropyridin-4-yl)benzamide]",0.4
6,"CNc1ccn(-c2ccnc3c2cc([C@H](C)N2CC=C(c4c(C)cc(C(=O)N5CCC(CN6CCN(Cc7ccc8c(c7)n(C7CC7)c(=O)n8[C@@H]7CCC(=O)NC7=O)C[C@@H]6C)CC5)cc4F)CC2)n3C)c(=O)c1 (single isomer, unassigned) [Example 3u113]",0.6
7,"Cc1cc(C(=O)N2CCC(CN3CCN(Cc4cc5c(cc4F)n(C4CCC(=O)NC4=O)c(=O)n5C4CC4)C[C@@H]3C)CC2)cc(F)c1C1=CCN([C@@H](C)c2cc3c(-n4ccc5c(c4=O)CCN5)ccnc3n2C)CC1 (stereo partly drawn) [Example 3u131, 3-(3-cyclopropyl-6-fluoro-5-(((S)-4-((1-(3-fluoro-5-methyl-4-(1-((S)-1-(1-methyl-4-(4-oxo-1,2,3,4-tetrahydro-5H-pyrrolo[3,2-c]pyridin-5-yl)-1H-pyrrolo[2,3-b]pyridin-2-yl)ethyl)-1,2,3,6-tetrahydropyridin-4-yl)benzoyl)piperidin-4-yl)methyl)-3-methylpiperazin-1-yl)methyl)-2-oxo-2,3-dihydro-1H-benzo[d]imidazol-1-yl)piperidine-2,6-dione]",0.8
8,"CNc1ccn(-c2ccnc3c2cc([C@H](C)N2CC=C(c4c(C)cc(C(=O)N5CCC(CN6CCN(Cc7ccc8c(c7)C7(CCCC7)C(=O)N8C7CCC(=O)NC7=O)CC6)CC5)cc4F)CC2)n3C)c(=O)c1 (stereo partly drawn) [Example 3u110, 3-(5′-((4-((1-(3-fluoro-5-methyl-4-(1-((S)-1-(1-methyl-4-(4-(methylamino)-2-oxopyridin-1 (2H)-yl)-1H-pyrrolo[2,3-b]pyridin-2-yl)ethyl)-1,2,3,6-tetrahydropyridin-4-yl)benzoyl)piperidin-4-yl)methyl)piperazin-1-yl)methyl)-2′-oxospiro[cyclopentane-1,3′-indolin]-1′-yl)piperidine-2,6-dione]",2.5
9,"Cc1cc(C(=O)N2CCC(CN3CCN(Cc4cc5c(cc4F)n([C@H]4CCC(=O)NC4=O)c(=O)n5C4CC4)C[C@@H]3C)CC2)cc(F)c1C1=CCN([C@@H](C)c2cc3c(-n4ccc5c(c4=O)CCN5)ccnc3n2C)CC1 (single isomer, unassigned) [Example 3u132]",0.5
10,"Cc1cc(C(=O)N2CCC(CN3CCN(Cc4cc5c(cc4F)n([C@@H]4CCC(=O)NC4=O)c(=O)n5C4CC4)C[C@@H]3C)CC2)cc(F)c1C1=CCN([C@@H](C)c2cc3c(-n4ccc5c(c4=O)CCN5)ccnc3n2C)CC1 (single isomer, unassigned) [Example 3u133]",0.8
11,"CNc1ccn(-c2ccnc3c2cc(CN2CCC(c4c(F)cc(C(=O)N5CCC(CN6CCN(Cc7ccc8c(c7)C7(CC7)C(=O)N8C7CCC(=O)NC7=O)C[C@@H]6C)CC5)cc4F)CC2)n3C)c(=O)c1F (stereo partly drawn) [Example 3u84, 3-(5′-(((S)-4-((1-(3,5-difluoro-4-(1-((4-(3-fluoro-4-(methylamino)-2-oxopyridin-1 (2H)-yl)-1-methyl-1H-pyrrolo[2,3-b]pyridin-2-yl)methyl)piperidin-4-yl)benzoyl)piperidin-4-yl)methyl)-3-methylpiperazin-1-yl)methyl)-2′-oxospiro[cyclopropane-1,3′-indolin]-1′-yl)piperidine-2,6-dione]",26
12,"CNc1ccn(-c2ccnc3c2cc([C@H](C)N2CCC(c4ccc(C(=O)N5CCC(CN6CCN(Cc7ccc8c(c7)C7(CC7)C(=O)N8[C@@H]7CCC(=O)NC7=O)C[C@@H]6C)CC5)cc4)CC2)n3C)c(=O)c1 (single isomer, unassigned) [Example 3u7]",0.6

# — patent US20250320206A1, “STAT6 DEGRADERS” (Gilead Sciences, Inc., priority 2024, published 2025)
